According to patent US20250230154A1, “COMPOUND HAVING SHP2 PROTEIN DEGRADING ACTIVITY, AND MEDICAL USES THEREOF” (UBIX THERAPEUTICS, INC., priority 2021, published 2025):

Target: T1, SHP2 protein (Homo sapiens, UniProt Q06124)
T1 sequence (Q06124 1-593): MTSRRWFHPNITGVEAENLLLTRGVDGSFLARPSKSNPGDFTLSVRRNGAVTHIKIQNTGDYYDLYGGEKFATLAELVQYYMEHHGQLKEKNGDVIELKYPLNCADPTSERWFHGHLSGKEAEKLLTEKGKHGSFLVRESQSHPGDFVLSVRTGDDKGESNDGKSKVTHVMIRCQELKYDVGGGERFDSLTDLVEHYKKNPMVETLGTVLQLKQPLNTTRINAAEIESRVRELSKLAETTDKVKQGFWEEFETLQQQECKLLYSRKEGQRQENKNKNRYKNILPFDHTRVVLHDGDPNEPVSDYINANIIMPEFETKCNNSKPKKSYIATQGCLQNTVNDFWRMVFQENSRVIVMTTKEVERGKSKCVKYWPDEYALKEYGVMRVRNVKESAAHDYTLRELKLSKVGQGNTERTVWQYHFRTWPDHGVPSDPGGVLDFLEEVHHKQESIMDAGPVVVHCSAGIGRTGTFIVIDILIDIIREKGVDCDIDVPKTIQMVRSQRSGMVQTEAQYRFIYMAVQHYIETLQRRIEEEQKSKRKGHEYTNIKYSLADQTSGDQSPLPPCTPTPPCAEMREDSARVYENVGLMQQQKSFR
Assay: Measurement of SHP2 protein degradation in MV-4-11 cells (western blotting)
Format: cell-based
Set-up: endogenous in cells; host or cells: MV-4-11
Details: MV-4-11 cells, 24 hours
Method: Experimental Example 2: Measurement of SHP2 Protein Degradation in MV-4-11 Cells
MV-4-11 cells were treated with the synthesized Example compound, and the amount of SHP2 protein present in the cells was measured using western blotting detection. The protocol of the experiment conducted using MV-4-11 cells was as follows:
[Culture] MV-4-11 cells resuspended in IMDM MEDIUM (Hyclone, SH30228.01) containing 5% FBS (Hyclone, SV30207.02) and 1% Penicillin-streptomycin (Welgene, LS 202-02) were seeded at a density of 1×10^6/mL/well in a 12-well plate in an amount of 1 ml each.
[Compound treatment] The 12-well plate was treated as follows: Cells were treated with compounds at a final concentration of […] made by serial dilution of 10 mM stock with DMSO in 1/100 increments […]. After 24 hours, cells were harvested. For the negative control group, DMSO diluted 1/100 to the media (3 mL DMSO+297 mL media) was added.
[Harvest] Each well was collected in a 1.5 mL microtube by pipetting with a 1 mL pipette and centrifuged (500 g, 5 min, 4° C.). The supernatant was removed. It was washed with PBS, and then centrifuged again (500 g, 5 min, 4° C.). Thereafter, the supernatant was removed to prepare a pellet.
[Cell Lysis and Sample preparation] Lysis buffer was prepared as follows: […] of RIPA buffer (Biosesang, RC2038-050-00)+0.5 mM PMSF (SIGMA, P7626)+1× Protease/Phosphatase Inhibitor (Cell signaling, 5872S) per well was added and placed on ice for 30 minutes (vortexing at 0 and 30 minutes, respectively). After sonication process (10 seconds pulse, 30 seconds rest, 5 cycles, 70% amplification), centrifugation (15000 g, 15 min, 4° C.) was performed, and then only the supernatant was taken and transferred to a microtube. The sample was diluted ¼ with RIPA buffer in a 96-well plate, and mixed with A:B=50:1 of the BCA Protein Assay Kit (iNtRON, 21071). […] each of the mixture was left at 37° C. for 30 minutes, and cooled for 10 minutes. Then, absorbance was measured at 562 nm with the SYNERGY H1 microplate reader from BioTek. After making a sample by quantifying the protein with the measured value, boiling was performed at 70° C. for 10 minutes. At this time, the sample buffer used was a mixture of NuPAGE or Bolt 4× sample buffer (Invitrogen) and each 10× sample reducing agent according to the gel to be used, and RIPA buffer was used for protein dilution.
[Western blotting detection method] The same amount of sample was loaded on NuPAGE or Bolt Bis-tris 4-12% gradient gel and run (200 V, 35 minutes). It was transferred to 0.2 mm NC membrane with Trans-blot Turbo (BIO-RAD) (1.3 A constant, 25 V limit, 15 minutes). Blocking was performed at room temperature for 1 hour with Skim milk or Intercept Blocking Buffer (LI-COR, 927-60001):0.1% TBST=1:1. Anti-SHPTP2 Mouse (1:500 in 2% BSA/0.2% TBST, size: 70 kDa, Santacruz sc-7384) was incubated overnight at 4° C., and Anti-GAPDH Rabbit (1:2,000 in 2% BSA/0.2% TBST, size: 37 kDa, CST #2118) was incubated at room temperature for 1 hour 30 minutes or 3 hours. It was washed 3 times for 5 minutes each with 0.2% TBST washing buffer. Secondary antibody Anti-Rabbit IgG (1:5,000 in 2% BSA/0.2% TBST, CST), IRDye® 680RD Goat anti-Rabbit IgG Secondary Antibody (1:10,000 in 2% BSA/0.2% TBST, LI-COR 926-68071) were added and incubated for 45 minutes on a rocker at room temperature. It was washed 5 times for 5 minutes each with 0.2% TBST washing buffer and detected with LI-COR's Odyssey. At this time, SHPTP2 was detected using SuperSignal West Pico PLUS Chemiluminescent Substrate, and house-keeping genes were also detected.
In the results of Table 4 below, Compounds 1-7, 13-19, and 21-26 are results in KYSE-520 cells, and the others are results in MV-4-11 cells.

Compound | SHP2 degradation (%) 10 nM [%] | SHP2 degradation (%) 100 nM [%]
Cc1ncsc1-c1ccc(CNC(=O)[C@@H]2C[C@@H](O)CN2C(=O)[C@@H](NC(=O)C2(F)CC2)C(C)(C)C)c(OC2CC3(CCN(C(=O)CC(=O)N(C)c4cccc(Sc5cnc(N6CCC(C)(CN)CC6)cn5)c4Cl)CC3)C2)c1 [Example 51, (2S,4R)—N-(2-((7-(3-((3-((5-(4-(aminomethyl)-4-methylpiperidin-1-yl)pyrazin-2-yl)thio)-2-chlorophenyl)(methyl)amino)-3-oxopropanoyl)-7-azaspiro[3.5]nonan-2-yl)oxy)-4-(4-methylthiazol-5-yl)benzyl)-1-((S)-2-(1-fluorocyclopropane-1-carboxamido)-3,3-dimethylbutanoyl)-4-hydroxypyrrolidine-2-carboxamide] | 4.7 | 74.1
Cc1ncsc1-c1ccc(CNC(=O)[C@@H]2C[C@@H](O)CN2C(=O)[C@@H](NC(=O)C2(F)CC2)C(C)(C)C)c(OCCCN2CCN(C(=O)CC(=O)Nc3cccc(Sc4cnc(N5CCC(C)(CN)CC5)cn4)c3Cl)[C@H](C)C2)c1 [Example 65] | 31.6 | 95.4
Cc1ncsc1-c1ccc(CNC(=O)[C@@H]2C[C@@H](O)CN2C(=O)[C@@H](NC(=O)C2(F)CC2)C(C)(C)C)c(OCCN2CCN(c3ccc(C(=O)Nc4cccc(Sc5cnc(N6CCC(C)(CN)CC6)cn5)c4Cl)cn3)CC2)c1 [Example 82, N-(3-((5-(4-(aminomethyl)-4-methylpiperidin-1-yl)pyrazin-2-yl)thio)-2-chlorophenyl)-6-(4-(2-(2-(((2S,4R)-1-((S)-2-(1-fluorocyclopropane-1-carboxamido)-3,3-dimethylbutanoyl)-4-hydroxypyrrolidine-2-carboxamido)methyl)-5-(4-methylthiazol-5-yl)phenoxy)ethyl)piperazin-1-yl)nicotinamide] | 16.2 | 96.2
Cc1ncsc1-c1ccc(CNC(=O)[C@@H]2C[C@@H](O)CN2C(=O)[C@@H](NC(=O)C2(F)CC2)C(C)(C)C)c(OCCCN2CCN(CC(=O)Nc3cccc(Sc4cnc(N5CCC(C)(CN)CC5)cn4)c3Cl)C(=O)C2)c1 [Example 77, (2S,4R)—N-(2-(3-(4-(2-((3-((5-(4-(aminomethyl)-4-methylpiperidin-1-yl)pyrazin-2-yl)thio)-2-chlorophenyl)amino)-2-oxoethyl)-3-oxopiperazin-1-yl)propoxy)-4-(4-methylthiazol-5-yl)benzyl)-1-((S)-2-(1-fluorocyclopropane-1-carboxamido)-3,3-dimethylbutanoyl)-4-hydroxypyrrolidine-2-carboxamide] | 92.4 | 99.5
COC(=O)[C@H]1CN(C(=O)CC(=O)Nc2cccc(Sc3cnc(N4CCC(C)(CN)CC4)cn3)c2Cl)CCN1CCOc1cc(-c2scnc2C)ccc1CNC(=O)[C@@H]1C[C@@H](O)CN1C(=O)[C@@H](NC(=O)C1(F)CC1)C(C)(C)C [Example 67, Methyl (R)-4-(3-((3-((5-(4-(aminomethyl)-4-methylpiperidin-1-yl)pyrazin-2-yl)thio)-2-chlorophenyl)amino)-3-oxopropanoyl)-1-(2-(2-(((2S,4R)-1-((S)-2-(1-fluorocyclopropane-1-carboxamido)-3,3-dimethylbutanoyl)-4-hydroxypyrrolidine-2-carboxamido)methyl)-5-(4-methylthiazol-5-yl)phenoxy)ethyl)piperazine-2-carboxylate] | 68.3 | 98.1
